Laboratory results reported in patent publication EP0499831A2, “Combination of active agents comprising a sydnonimin derivate and a hirudin” (CASSELLA Aktiengesellschaft, priority 1991, dated 1992).

Legend:
[1] = Systolic and diastolic peripheral arterial blood pressure measured in the same animals; type: in vivo, Hausschweinen; details: Molsidomin 0.1 mg/kg i.v. alone (Gruppe 1) or with r-Hirudin total 0.2 mg/kg i.v. (Gruppe 3)
From the text: Diese Wirkung wurde in folgendem Test ermittelt: Bei männlichen, ca. 4 Monate alten Hausschweinen wurde eine Coronarthrombose nach der Methode von Folts et al (Circulation 1976, 54; 365 - 70) erzeugt. Bei den tief narkotisierten Tieren wurde der Thorax eröffnet; die linke absteigende Coronararterie wurde freipräpariert und mit einem elektromagnetischen Blutströmungsmeßkopf versehen. Distal des Meßkopfes wurde das Coronargefäß durch kurzes (1 s) Quetschen mit einer Gefäßklemme geschädigt. Auf diese Stelle wurde ein Plastikkonstriktor (innerer Durchmesser 1.7 - 2.8 mm, Länge 2 mm) gesetzt, der das Gefäß stenosiert. Diese Versuchsbedingungen führten zum Auftreten regelmäßiger zyklischer Blutströmungsveränderungen (CFV's), verursacht durch die wiederholte Bildung und Embolisierung von Thromben an der geschädigten stenosierten Stelle. Die Thromben wurden durch Bestimmung der Frequenz (Anzahl pro 60 min) der zyklischen Blutströmungsveränderungen quantifiziert. […]

Coronarthrombose = assay: Coronary thrombosis by the method of Folts et al.: frequency of cyclic blood flow variations (CFV's) in the damaged, stenosed left descending coronary artery of anaesthetised pigs; type: in vivo, Hausschweinen
Description: Bei den tief narkotisierten Tieren wurde der Thorax eröffnet; die linke absteigende Coronararterie wurde freipräpariert und mit einem elektromagnetischen Blutströmungsmeßkopf versehen. Distal des Meßkopfes wurde das Coronargefäß durch kurzes (1 s) Quetschen mit einer Gefäßklemme geschädigt. Auf diese Stelle wurde ein Plastikkonstriktor (innerer Durchmesser 1.7 - 2.8 mm, Länge 2 mm) gesetzt, der das Gefäß stenosiert. […] Die Thromben wurden durch Bestimmung der Frequenz (Anzahl pro 60 min) der zyklischen Blutströmungsveränderungen quantifiziert. […] 0.1 mg/kg Molsidomin i.v. zusammen mit 0.1 mg/kg r-Hirudin i.v., gefolgt von 0.1 mg/kg·60 min r-Hirudin - Infusion.
Der Versuch wurde 1 Stunde nach Ende der Infusion bzw. 2 Stunden nach Bolusinjektion der Substanzen beendet. Die Frequenzen der zyklischen Blutströmungsveränderungen in der Stunde vor und in der ersten und zweiten Stunde nach Injektion der Prüfsubstanzen wurden für jede Versuchsgruppe gemittelt. Die mittleren Frequenzen der Zyklen vor und nach Substanzverabreichung wurden statistisch miteinander verglichen (Student-t-Test für verbundene Stichproben). Ein p - Wert von < 0.05 galt als signifikanter Unterschied.

CCOC(=O)[N-]c1cn(N2CCOCC2)n[o+]1 [Molsidomin, N-Ethoxycarbonyl-3-morpholino-sydnonimin]
Senkung des diastolischen Blutdrucks ([1]; decrease not significant): 10 ± 5 mm Hg
Senkung des systolischen Blutdrucks ([1]; maximal decrease, p < 0.05): 18 ± 5 mm Hg
Anzahl thrombotischer Flowzyklen (n/60 min) 1. Stunde nach Substanzinjektion (Coronarthrombose; 1st hour after injection, Molsidomin 0.1 mg/kg i.v. bolus, r-Hirudin total 0.2 mg/kg (0.1 mg/kg i.v. bolus + i.v. infusion over 60 min), combination: both, n=6): 19 ± 3 n/60 min
Anzahl thrombotischer Flowzyklen (n/60 min) 1. Stunde Vorphase (Coronarthrombose; baseline hour before substance injection, mean of group, n=6): 16 ± 2 n/60 min
antithrombotische Wirkung der Einzeldosierungen (Coronarthrombose; preliminary experiments (Vorversuche), single doses: Molsidomin 0.1 mg/kg i.v., r-Hirudin total 0.2 mg/kg i.v.): gerade nicht antithrombotisch wirkend
